# Source: PubChem BioAssay AID2060607 (Molecular Pharmacology Branch, DTP, NCI, 2025)
# pIC50: −log10 of the molar value. Values joined by “and” are separate entries in the source; they are usually repeats but may differ in a detail not shown here. Equal values may be shown once.
# Test system: 876862-298-R-J1-PDC complex spheroids, viability % test/control
# Test: Anticancer human tumor 876862-298-R-J1-PDC patient-derived endometrial carcinoma cell line growth inhibition [CLK]
# Conditions: for viability, T/C: stronger effect = lower value
# Outline: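 Patient-derived tumor cells grown as complex spheroids with HUVEC endothelial cells and mesenchymal stem cells, treated with drug combinations. Concentrations descend in half-log steps from near clinical Cmax, or from 10 microM if Cmax unknown.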
# [1] = curve of first compound, second compound 0.0316 µM
# [2] = curve of first compound, second compound 0.1 µM
# [3] = curve of first compound, second compound 0.316 µM
# [4] = curve of first compound, second compound 1 µM
# [5] = curve of first compound, second compound 3.16 µM
# [6] = curve of first compound, second compound 10 µM
# [7] = second compound 0.0316 µM, first compound 0.0316 µM
# [8] = second compound 0.0316 µM, first compound 0.1 µM
# [9] = second compound 0.0316 µM, first compound 0.316 µM
# [10] = second compound 0.0316 µM, first compound 1 µM
# [11] = second compound 0.1 µM, first compound 0.0316 µM
# [12] = second compound 0.1 µM, first compound 0.1 µM
# [13] = second compound 0.1 µM, first compound 0.316 µM
# [14] = second compound 0.1 µM, first compound 1 µM
# [15] = second compound 0.316 µM, first compound 0.0316 µM
# [16] = second compound 0.316 µM, first compound 0.1 µM
# [17] = second compound 0.316 µM, first compound 0.316 µM
# [18] = second compound 0.316 µM, first compound 1 µM
# [19] = second compound 1 µM, first compound 0.0316 µM
# [20] = second compound 1 µM, first compound 0.1 µM
# [21] = second compound 1 µM, first compound 0.316 µM
# [22] = second compound 1 µM, first compound 1 µM
# [23] = second compound 3.16 µM, first compound 0.0316 µM
# [24] = second compound 3.16 µM, first compound 0.1 µM
# [25] = second compound 3.16 µM, first compound 0.316 µM
# [26] = second compound 3.16 µM, first compound 1 µM
# [27] = second compound 10 µM, first compound 0.0316 µM
# [28] = second compound 10 µM, first compound 0.1 µM
# [29] = second compound 10 µM, first compound 0.316 µM
# [30] = second compound 10 µM, first compound 1 µM
# 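Further: spheroids exposed to drugs for 7 days before readout.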
# 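Wherever viability, T/C is given: 100% = DMSO vehicle control wells.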
smiles,measurement,setting,value
CC1(C)CCC(CN2CCN(c3ccc(C(=O)NS(=O)(=O)c4ccc(NCC5CCOCC5)c([N+](=O)[O-])c4)c(Oc4cnc5[nH]ccc5c4)c3)CC2)=C(c2ccc(Cl)cc2)C1 + CN1CCN(c2cc(C(=O)Nc3cc4cc(-c5cnn(C)c5)ccc4cn3)ccn2)CC1,pIC50,[1],5.24
same,pIC50,[2],> 7.50
same,pIC50,[3],> 7.50
same,pIC50,[4],> 7.50
same,pIC50,[5],> 7.50
same,pIC50,[6],> 7.50
same,"viability, T/C",[7],95%
same,"viability, T/C",[8],89.1%
same,"viability, T/C",[9],90.4%
same,"viability, T/C",[10],89.2%
same,"viability, T/C","second compound 0.0316 µM, first compound 3.16 µM",94.7%
same,"viability, T/C","second compound 0.0316 µM, first compound 10 µM",11.1%
same,"viability, T/C",[11],52.3%
same,"viability, T/C",[12],47.5%
same,"viability, T/C",[13],45.5%
same,"viability, T/C",[14],46.1%
same,"viability, T/C","second compound 0.1 µM, first compound 3.16 µM",43.8%
same,"viability, T/C","second compound 0.1 µM, first compound 10 µM",3.97%
same,"viability, T/C",[15],2.64%
same,"viability, T/C",[16],2.13%
same,"viability, T/C",[17],2.43%
same,"viability, T/C",[18],2.21%
same,"viability, T/C","second compound 0.316 µM, first compound 3.16 µM",1.34%
same,"viability, T/C","second compound 0.316 µM, first compound 10 µM",0.56%
same,"viability, T/C",[19],0.41%
same,"viability, T/C",[20],1.28%
same,"viability, T/C",[21],0.52%
same,"viability, T/C",[22],0.24%
same,"viability, T/C","second compound 1 µM, first compound 3.16 µM",0.22%
same,"viability, T/C","second compound 1 µM, first compound 10 µM",0.53%
same,"viability, T/C",[23],0.68%
same,"viability, T/C",[24],0.51%
same,"viability, T/C",[25],0.52%
same,"viability, T/C",[26],0.34%
same,"viability, T/C","second compound 3.16 µM, first compound 3.16 µM",0.16%
same,"viability, T/C","second compound 3.16 µM, first compound 10 µM",0.09%
same,"viability, T/C",[27],0.38%
same,"viability, T/C",[28],0.67%
same,"viability, T/C",[29],0.34%
same,"viability, T/C",[30],0.45%
same,"viability, T/C","second compound 10 µM, first compound 3.16 µM",0.19%
same,"viability, T/C","second compound 10 µM, first compound 10 µM",1.19%
CC1(C)CCC(CN2CCN(c3ccc(C(=O)NS(=O)(=O)c4ccc(NCC5CCOCC5)c([N+](=O)[O-])c4)c(Oc4cnc5[nH]ccc5c4)c3)CC2)=C(c2ccc(Cl)cc2)C1,"viability, T/C",compound 0.0316 µM,102% and 88.4%
same,"viability, T/C",compound 0.1 µM,92% and 101%
same,"viability, T/C",compound 0.316 µM,105% and 99.1%
same,"viability, T/C",compound 1 µM,102% and 106%
same,"viability, T/C",compound 3.16 µM,111% and 121%
same,"viability, T/C",compound 10 µM,18.4% and 14.2%
same,pIC50,curve of compound,5.19 and 5.20
CCN1CCN(Cc2ccc(Nc3ncc(F)c(-c4cc(F)c5nc(C)n(C(C)C)c5c4)n3)nc2)CC1 + CNC(=O)c1ccc(Nc2nc(OC3CCCC3)c3c(-c4ccc5nc(C)oc5c4)c[nH]c3n2)c(OC)c1,pIC50,[1],< 6.00
same,pIC50,[2],7.22
same,pIC50,[3],> 8.50
same,pIC50,[4],> 8.50
same,pIC50,[5],> 8.50
same,pIC50,[6],> 8.50
same,"viability, T/C","second compound 0.0316 µM, first compound 0.00316 µM",76.6%
same,"viability, T/C","second compound 0.0316 µM, first compound 0.01 µM",84.1%
same,"viability, T/C",[7],69.4%
same,"viability, T/C",[8],62.5%
same,"viability, T/C",[9],59%
same,"viability, T/C",[10],49%
same,"viability, T/C","second compound 0.1 µM, first compound 0.00316 µM",46%
same,"viability, T/C","second compound 0.1 µM, first compound 0.01 µM",51.9%
same,"viability, T/C",[11],57.1%
same,"viability, T/C",[12],47.8%
same,"viability, T/C",[13],47.8%
same,"viability, T/C",[14],49.5%
same,"viability, T/C","second compound 0.316 µM, first compound 0.00316 µM",47.2%
same,"viability, T/C","second compound 0.316 µM, first compound 0.01 µM",45.2%
same,"viability, T/C",[15],49.6%
same,"viability, T/C",[16],46.4%
same,"viability, T/C",[17],45.1%
same,"viability, T/C",[18],42.8%
same,"viability, T/C","second compound 1 µM, first compound 0.00316 µM",34.7%
same,"viability, T/C","second compound 1 µM, first compound 0.01 µM",40.4%
same,"viability, T/C",[19],41.1%
same,"viability, T/C",[20],38.8%
same,"viability, T/C",[21],31.8%
same,"viability, T/C",[22],40.5%
same,"viability, T/C","second compound 3.16 µM, first compound 0.00316 µM",28%
same,"viability, T/C","second compound 3.16 µM, first compound 0.01 µM",29.1%
same,"viability, T/C",[23],27.1%
same,"viability, T/C",[24],30%
same,"viability, T/C",[25],30.1%
same,"viability, T/C",[26],35.2%
same,"viability, T/C","second compound 10 µM, first compound 0.00316 µM",25.2%
same,"viability, T/C","second compound 10 µM, first compound 0.01 µM",25.6%
same,"viability, T/C",[27],22.7%
same,"viability, T/C",[28],26.4%
same,"viability, T/C",[29],30.1%
same,"viability, T/C",[30],32.2%
